PubChem BioAssay (NCI)
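Assay format: 96-well plates, 48-hour exposure. GI50 = concentration required for 50% inhibition of growth. At the TGI there is no net growth.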

Key:
Test in all cases: growth of human tumour cells (NCI), 48 h
HCT-15 colon = tested on: HCT-15 colon
MCF7 breast = tested on: MCF7 breast
NCI-H226 lung = tested on: NCI-H226 lung
ACHN renal = tested on: ACHN renal
IGROV1 ovarian = tested on: IGROV1 ovarian
786-0 renal = tested on: 786-0 renal
SK-OV-3 ovarian = tested on: SK-OV-3 ovarian
HOP-92 NSCLC = tested on: HOP-92 NSCLC
SF-295 CNS = tested on: SF-295 CNS
U251 CNS = tested on: U251 CNS

SMILES: Cc1cc(C(O)CNC(C)CCn2cnc3c2c(=O)n(C)c(=O)n3C)ccc1O (centres undefined)
- TGI (HCT-15 colon): > 100 µM
- TGI (MCF7 breast): > 100 µM
- TGI (NCI-H226 lung): > 100 µM
- TGI (ACHN renal): > 100 µM
- TGI (IGROV1 ovarian): > 100 µM
- TGI (786-0 renal): > 100 µM
- TGI (SK-OV-3 ovarian): > 100 µM
- TGI (HOP-92 NSCLC): > 100 µM
- TGI (SF-295 CNS): > 100 µM
- TGI (U251 CNS): > 100 µM

SMILES: Cc1ccc(S(=O)(=O)Nc2cc(Sc3ccccc3)c(O)c3ccccc23)cc1
- GI50 (HCT-15 colon): 6.81 µM
- TGI (HCT-15 colon): 25.1 µM
- GI50 (MCF7 breast): 1.95 µM
- TGI (MCF7 breast): 4.79 µM
- GI50 (NCI-H226 lung): 14.7 µM
- TGI (NCI-H226 lung): 39.3 µM
- GI50 (ACHN renal): 2.8 µM
- TGI (ACHN renal): 10.4 µM
- GI50 (IGROV1 ovarian): 3.5 µM
- TGI (IGROV1 ovarian): 10.4 µM
- GI50 (SK-OV-3 ovarian): 15.6 µM
- TGI (SK-OV-3 ovarian): 29.8 µM
- GI50 (HOP-92 NSCLC): 2.02 µM
- TGI (HOP-92 NSCLC): 4.57 µM
- GI50 (SF-295 CNS): 12.9 µM
- TGI (SF-295 CNS): 26.8 µM
- GI50 (U251 CNS): 1.94 µM
- TGI (U251 CNS): 3.84 µM

SMILES: O=c1c(Sc2ncccn2)c(Sc2ncccn2)cnn1CCl
- TGI (HCT-15 colon): 11.8 µM
- TGI (MCF7 breast): 11.6 µM
- TGI (NCI-H226 lung): > 76.8 µM
- TGI (ACHN renal): 5.45 µM
- TGI (IGROV1 ovarian): 4.76 µM
- TGI (786-0 renal): 4.79 µM
- TGI (SK-OV-3 ovarian): 23.2 µM
- TGI (HOP-92 NSCLC): 7.38 µM
- TGI (SF-295 CNS): 30 µM
- TGI (U251 CNS): 19.7 µM

SMILES: O=C(Nc1ccc(S(=O)(=O)Nc2ncccn2)cc1)c1c2ccccc2nc2ccccc12
- TGI (HCT-15 colon): > 100 µM
- TGI (MCF7 breast): > 100 µM
- TGI (NCI-H226 lung): > 100 µM
- TGI (ACHN renal): > 100 µM
- TGI (IGROV1 ovarian): > 100 µM
- TGI (786-0 renal): > 100 µM
- TGI (SK-OV-3 ovarian): > 100 µM
- TGI (HOP-92 NSCLC): > 100 µM
- TGI (SF-295 CNS): > 100 µM
- TGI (U251 CNS): > 100 µM

SMILES: CCCOP(=S)(N1CC1)N1CC1
- TGI (HCT-15 colon): > 100 µM
- TGI (NCI-H226 lung): > 100 µM
- TGI (ACHN renal): > 100 µM
- TGI (IGROV1 ovarian): > 100 µM
- TGI (786-0 renal): > 100 µM
- TGI (SK-OV-3 ovarian): > 100 µM
- TGI (HOP-92 NSCLC): > 100 µM
- TGI (SF-295 CNS): > 100 µM
- TGI (U251 CNS): > 100 µM

SMILES: COc1ccc(/C=C(\Cl)c2ccc(OC)cc2)cc1
- TGI (NCI-H226 lung): > 100 µM
- TGI (ACHN renal): > 100 µM
- TGI (786-0 renal): > 100 µM
- TGI (SK-OV-3 ovarian): > 100 µM
- TGI (HOP-92 NSCLC): > 100 µM
- TGI (U251 CNS): > 100 µM

SMILES: Cc1ncc(CO)c(C=NCCCCCCN=Cc2c(CO)cnc(C)c2O)c1O
- TGI (HCT-15 colon): > 100 µM
- TGI (MCF7 breast): > 100 µM
- TGI (NCI-H226 lung): > 100 µM
- TGI (ACHN renal): > 100 µM
- TGI (IGROV1 ovarian): > 100 µM
- TGI (786-0 renal): > 100 µM
- TGI (SK-OV-3 ovarian): > 100 µM
- TGI (HOP-92 NSCLC): > 100 µM
- TGI (SF-295 CNS): > 100 µM
- TGI (U251 CNS): > 100 µM

SMILES: COC(=O)CCC(C)[C@H]1CCC2C3C(C[C@H](OC(C)=O)[C@@]21C)[C@@]1(C)CCC2(C[C@H]1C[C@H]3OC(C)=O)OOC1(CCCCC1)OO2 (some centres undefined)
- TGI (HCT-15 colon): > 100 µM
- TGI (MCF7 breast): > 100 µM
- TGI (NCI-H226 lung): > 100 µM
- TGI (ACHN renal): 77.3 µM
- TGI (IGROV1 ovarian): 20.8 µM
- TGI (786-0 renal): 48.6 µM
- TGI (SK-OV-3 ovarian): > 100 µM
- TGI (HOP-92 NSCLC): 26.5 µM
- TGI (SF-295 CNS): 80.4 µM
- TGI (U251 CNS): > 100 µM

SMILES: Oc1ccc(Cn2c(-c3ccc(O)cc3)nc3ccccc32)cc1
- TGI (HCT-15 colon): > 100 µM
- TGI (MCF7 breast): > 100 µM
- TGI (NCI-H226 lung): > 100 µM
- TGI (ACHN renal): > 100 µM
- TGI (IGROV1 ovarian): > 100 µM
- TGI (786-0 renal): > 100 µM
- TGI (SK-OV-3 ovarian): > 100 µM
- TGI (HOP-92 NSCLC): > 100 µM
- TGI (SF-295 CNS): > 100 µM
- TGI (U251 CNS): > 100 µM

SMILES: CC(=O)C1C(=O)C(=O)N(c2ccc(Br)cc2)C1=O (centres undefined)
- TGI (HCT-15 colon): > 100 µM
- TGI (MCF7 breast): > 100 µM
- TGI (NCI-H226 lung): > 100 µM
- TGI (ACHN renal): > 100 µM
- TGI (IGROV1 ovarian): > 100 µM
- TGI (786-0 renal): > 100 µM
- TGI (SK-OV-3 ovarian): > 100 µM
- TGI (HOP-92 NSCLC): > 100 µM
- TGI (SF-295 CNS): > 100 µM
- TGI (U251 CNS): > 100 µM

SMILES: CC[C@H](C)[C@H]1NC(=O)[C@@H](NC(=O)[C@@H](CC(C)C)N(C)C(=O)C2CCCN2C(=O)[C@H](C)O)[C@@H](C)OC(=O)[C@H](Cc2ccccc2)N(C)C(=O)[C@@H]2CCCN2C(=O)[C@H](CC(C)C)NC(=O)[C@@H](C)C(=O)[C@H](C(C)C)OC(=O)C[C@@H]1O (some centres undefined)
- TGI (HCT-15 colon): 0.556 µM
- TGI (MCF7 breast): 0.0641 µM
- TGI (NCI-H226 lung): 0.00705 µM
- TGI (ACHN renal): < 0.00625 µM
- TGI (786-0 renal): 0.0119 µM
- TGI (SK-OV-3 ovarian): 0.101 µM
- TGI (SF-295 CNS): 0.0134 µM

SMILES: Cc1cn2c(/C=C3/C(=O)Nc4ccccc43)c(C)nc2s1
- TGI (HCT-15 colon): > 100 µM
- TGI (MCF7 breast): > 100 µM
- TGI (ACHN renal): > 100 µM
- TGI (IGROV1 ovarian): > 100 µM
- TGI (786-0 renal): > 100 µM
- TGI (SK-OV-3 ovarian): 25.7 µM
- TGI (HOP-92 NSCLC): > 100 µM
- TGI (SF-295 CNS): > 100 µM
- TGI (U251 CNS): 10.9 µM

SMILES: Cc1ccc(-n2cc(-c3ccc(Cl)cc3)c3c2N=CN2NC(c4cccs4)=NC32)cc1 (centres undefined)
- TGI (HCT-15 colon): > 100 µM
- TGI (MCF7 breast): > 100 µM
- TGI (NCI-H226 lung): 80.7 µM
- TGI (ACHN renal): 19.2 µM
- TGI (IGROV1 ovarian): 34.7 µM
- TGI (786-0 renal): 15.5 µM
- TGI (SK-OV-3 ovarian): 37.3 µM
- TGI (HOP-92 NSCLC): 24 µM
- TGI (SF-295 CNS): 25.2 µM
- TGI (U251 CNS): 18.1 µM

SMILES: CC(C)(C)N=c1n(C(C)(C)C)oc(=O)n1-c1ccccc1
- TGI (HCT-15 colon): > 50 µM
- TGI (MCF7 breast): > 50 µM
- TGI (NCI-H226 lung): > 50 µM
- TGI (ACHN renal): > 50 µM
- TGI (IGROV1 ovarian): > 50 µM
- TGI (786-0 renal): > 50 µM
- TGI (SK-OV-3 ovarian): > 50 µM
- TGI (HOP-92 NSCLC): > 50 µM
- TGI (SF-295 CNS): > 50 µM
- TGI (U251 CNS): > 50 µM

SMILES: CC#Cc1c(C#CC)c(OC)c2c(c1OC)C(=O)c1ccccc1C2=O
- TGI (HCT-15 colon): > 100 µM
- TGI (ACHN renal): 34.8 µM
- TGI (IGROV1 ovarian): > 100 µM
- TGI (786-0 renal): > 100 µM
- TGI (SK-OV-3 ovarian): > 100 µM
- TGI (SF-295 CNS): 39.1 µM
- TGI (U251 CNS): 48 µM

SMILES: CC1=C(C(=O)NC(C)(C)C)CC(C(=O)NC(C)(C)C)C(C)N1 (centres undefined)
- TGI (HCT-15 colon): > 100 µM
- TGI (MCF7 breast): > 100 µM
- TGI (NCI-H226 lung): > 100 µM
- TGI (ACHN renal): > 100 µM
- TGI (IGROV1 ovarian): > 100 µM
- TGI (786-0 renal): > 100 µM
- TGI (SK-OV-3 ovarian): > 100 µM
- TGI (HOP-92 NSCLC): > 100 µM
- TGI (SF-295 CNS): > 100 µM
- TGI (U251 CNS): > 100 µM

SMILES: O=C(O)CCc1nc2cc3ccccc3cc2[nH]c1=O
- TGI (HCT-15 colon): > 100 µM
- TGI (MCF7 breast): > 100 µM
- TGI (NCI-H226 lung): > 100 µM
- TGI (ACHN renal): > 100 µM
- TGI (IGROV1 ovarian): > 100 µM
- TGI (786-0 renal): > 100 µM
- TGI (SK-OV-3 ovarian): > 100 µM
- TGI (HOP-92 NSCLC): > 100 µM
- TGI (SF-295 CNS): > 100 µM
- TGI (U251 CNS): > 100 µM

SMILES: COc1ccccc1Cn1[nH]c(=O)c2cc([N+](=O)[O-])ccc21
- TGI (HCT-15 colon): > 100 µM
- TGI (NCI-H226 lung): > 100 µM
- TGI (ACHN renal): > 100 µM
- TGI (IGROV1 ovarian): > 100 µM
- TGI (786-0 renal): > 100 µM
- TGI (HOP-92 NSCLC): 93.4 µM

SMILES: COC(=O)CCC1(O)C=CC(=O)C=C1
- TGI (HCT-15 colon): 43.2 µM
- TGI (MCF7 breast): > 100 µM
- TGI (NCI-H226 lung): > 100 µM
- TGI (ACHN renal): > 100 µM
- TGI (IGROV1 ovarian): > 100 µM
- TGI (786-0 renal): > 100 µM
- TGI (HOP-92 NSCLC): > 100 µM
- TGI (SF-295 CNS): > 100 µM
- TGI (U251 CNS): 63.2 µM

SMILES: CN(C)C(=O)Oc1ccc(C(=S)Nc2ccccc2)cc1Br
- TGI (HCT-15 colon): > 100 µM
- TGI (MCF7 breast): > 100 µM
- TGI (ACHN renal): > 100 µM
- TGI (IGROV1 ovarian): 48.9 µM
- TGI (786-0 renal): > 100 µM
- TGI (SK-OV-3 ovarian): > 100 µM
- TGI (SF-295 CNS): > 100 µM
- TGI (U251 CNS): > 100 µM

SMILES: CSc1nc(-c2ccc(Cl)cc2)c(C#N)c(=O)[nH]1
- TGI (HCT-15 colon): > 100 µM
- TGI (MCF7 breast): > 100 µM
- TGI (NCI-H226 lung): > 100 µM
- TGI (ACHN renal): > 100 µM
- TGI (IGROV1 ovarian): > 100 µM
- TGI (786-0 renal): > 100 µM
- TGI (SK-OV-3 ovarian): > 100 µM
- TGI (HOP-92 NSCLC): 97.7 µM
- TGI (SF-295 CNS): > 100 µM
- TGI (U251 CNS): > 100 µM
